These results are taken from ChEMBL document CHEMBL4340520, “Hederagenin amide derivatives as potential antiproliferative agents” (Eur J Med Chem, 2019).

The subject of one assay is FaDu. Briefly: Cytotoxicity against human FADU cells assessed as reduction in cell viability after 96 hrs by SRB assay. It is filed as functional, cell-based. In general terms: In SRB staining, fixed cells bind dye roughly in proportion to their protein.
Assay [1] has as its system A2780. Description: Cytotoxicity against human A2780 cells assessed as reduction in cell viability after 96 hrs by SRB assay. It is filed as functional, cell-based. Particulars: A2780, 96 h.
The test system of another assay is HT-29. Briefly: Cytotoxicity against human HT-29 cells assessed as reduction in cell viability after 96 hrs by SRB assay. It is filed as functional, cell-based. Particulars: HT-29, 96 h.
The next assay has as its system MCF7. Description: Cytotoxicity against human MCF7 cells assessed as reduction in cell viability after 96 hrs by SRB assay. It is filed as functional, cell-based. Particulars: MCF7, 96 h.
The test system of the next assay is SW-1736. Description: Cytotoxicity against human SW1736 cells assessed as reduction in cell viability after 96 hrs by SRB assay. Particulars: SW-1736, 96 h. The format is functional, cell-based.
In another assay the test system is NIH3T3. Briefly: Cytotoxicity against mouse NIH/3T3 cells assessed as reduction in cell viability after 96 hrs by SRB assay. It is filed as cell-based. As to conditions: NIH3T3, 96 h.
Assay [2] deals with A2780. Description: Potency index, ratio of hederagenin EC50 to test compound EC50 for cytotoxicity against human A2780 cells. The format is functional.
Assay [3] relates to A2780. Briefly: Potency index, ratio of acetylated hederagenin EC50 to test compound EC50 for cytotoxicity against human A2780 cells. It is filed as functional.
Assay [4] has as its system A2780. Briefly: Potency index, ratio of betulinic acid EC50 to test compound EC50 for cytotoxicity against human A2780 cells. The format is functional.

pEC50: −log10 of the molar value.

With `CC(=O)OC[C@@]1(C)[C@@H]2CC[C@]3(C)[C@H](CC=C4[C@@H]5CC(C)(C)CC[C@]5(C(=O)NCCCCN)CC[C@]43C)[C@@]2(C)CC[C@@H]1OC(C)=O`, the pEC50 in the assay on FaDu, in the assay on A2780 [1], in the assay with HT-29, with MCF7, with SW-1736 and in the assay with NIH3T3 was under 4.52 each time.

In the case of `COC(=O)C(NC(=O)[C@]12CCC(C)(C)C[C@H]1C1=CC[C@@H]3[C@@]4(C)CC[C@H](OC(C)=O)[C@@](C)(COC(C)=O)[C@@H]4CC[C@@]3(C)[C@]1(C)CC2)c1ccccc1` (some centres not stated), the pEC50 (in general, −log10 of the EC50, conventionally taken in molar units) in the assay on FaDu was 5.34; in the assay on A2780 [1], 5.48; in the assay on HT-29, 5.29; in the assay on MCF7, 5.24; with SW-1736, 5.20; in the assay on NIH3T3, 4.89.

For `COC(=O)C(NC(=O)[C@]12CCC(C)(C)C[C@H]1C1=CC[C@@H]3[C@@]4(C)CC[C@H](O)[C@@](C)(CO)[C@@H]4CC[C@@]3(C)[C@]1(C)CC2)c1ccccc1` (some centres not stated), the pEC50 with FaDu, in the assay on A2780 [1], in the assay with HT-29, in the assay with SW-1736 and with NIH3T3 was under 4.52 in each case.

With `CC(=O)OC[C@@]1(C)[C@@H]2CC[C@]3(C)[C@H](CC=C4[C@@H]5CC(C)(C)CC[C@]5(C(=O)NCc5cn(Cc6ccccc6Cl)nn5)CC[C@]43C)[C@@]2(C)CC[C@@H]1OC(C)=O`, the negative-log EC50 (pEC50) in the assay on FaDu is 5.66; with A2780 [1], 5.77; with HT-29 it was 5.77; with MCF7, 5.59; in the assay on SW-1736 it was 5.74; with NIH3T3 it was 5.44.

With `CC1(C)CC[C@]2(C(=O)O)CC[C@]3(C)C(=CC[C@@H]4[C@@]5(C)CC[C@H](O)[C@@](C)(CO)[C@@H]5CC[C@]43C)[C@@H]2C1` [HEDERAGENIN], the negative-log EC50 (pEC50) with FaDu, in the assay with A2780 [1], with HT-29, with MCF7, with SW-1736 and in the assay with NIH3T3 was under 4.52 throughout.

In the case of `CC(=O)OC[C@@]1(C)[C@@H]2CC[C@]3(C)[C@H](CC=C4[C@@H]5CC(C)(C)CC[C@]5(C(=O)NCc5cn(Cc6ccccc6[N+](=O)[O-])nn5)CC[C@]43C)[C@@]2(C)CC[C@@H]1OC(C)=O`, the pEC50 in the assay with FaDu is 5.55; with A2780 [1] it was 5.80; in the assay on HT-29 it was 5.72; in the assay with MCF7, 5.57; in the assay with SW-1736 it was 5.42; in the assay with NIH3T3 it was 5.68.

`CC(=O)OC[C@@]1(C)[C@@H]2CC[C@]3(C)[C@H](CC=C4[C@@H]5CC(C)(C)CC[C@]5(C(=O)NCCN5CCOCC5)CC[C@]43C)[C@@]2(C)CC[C@@H]1OC(C)=O`: the pEC50 with FaDu is 5.48; in the assay with A2780 [1], 5.92; with HT-29, 5.55; in the assay with MCF7, 5.42; in the assay with SW-1736, 5.41; with NIH3T3, 5.12.

On to `CC(=O)OC[C@@]1(C)[C@@H]2CC[C@]3(C)[C@H](CC=C4[C@@H]5CC(C)(C)CC[C@]5(C(=O)N5CCCCC5)CC[C@]43C)[C@@]2(C)CC[C@@H]1OC(C)=O`, for which the pEC50 is 5.26 with FaDu; 5.55 with A2780 [1]; 5.24 with HT-29; 5.21 in the assay on MCF7; 5.15 in the assay on SW-1736; 4.82 in the assay on NIH3T3.

`CC(=O)OC[C@@]1(C)[C@@H]2CC[C@]3(C)[C@H](CC=C4[C@@H]5CC(C)(C)CC[C@]5(C(=O)NCc5cn(Cc6ccccc6F)nn5)CC[C@]43C)[C@@]2(C)CC[C@@H]1OC(C)=O`: the pEC50 with FaDu was 5.55; in the assay on A2780 [1], 5.89; in the assay with HT-29, 5.52; with MCF7, 5.55; in the assay on SW-1736 it was 5.33; with NIH3T3, 5.16.

Regarding `CC(=O)OC[C@@]1(C)[C@@H]2CC[C@]3(C)[C@H](CC=C4[C@@H]5CC(C)(C)CC[C@]5(C(=O)NCCN5CCCCC5)CC[C@]43C)[C@@]2(C)CC[C@@H]1OC(C)=O`, the pEC50 in the assay on FaDu was 5.37; in the assay with A2780 [1], 5.68; with HT-29, 5.68; in the assay with MCF7, 5.49; in the assay with SW-1736 it was 5.33; in the assay on NIH3T3, 5.49.

As to `CC1(C)CC[C@]2(C(=O)NCCCCN)CC[C@]3(C)C(=CC[C@@H]4[C@@]5(C)CC[C@H](O)[C@@](C)(CO)[C@@H]5CC[C@]43C)[C@@H]2C1`, the pEC50 was under 4.52 with FaDu; 5.01 in the assay with A2780 [1]; 5.21 in the assay on HT-29; under 4.52 in the assay on MCF7; 4.91 with SW-1736; 5.15 in the assay with NIH3T3.

Regarding `CC(=O)OC[C@@]1(C)[C@@H]2CC[C@]3(C)[C@H](CC=C4[C@@H]5CC(C)(C)CC[C@]5(C(=O)NCCc5ccccn5)CC[C@]43C)[C@@]2(C)CC[C@@H]1OC(C)=O`, the pEC50 in the assay on FaDu is 5.55; in the assay on A2780 [1], 5.82; in the assay with HT-29, 5.48; with MCF7, 5.46; in the assay with SW-1736, 5.47; in the assay on NIH3T3 it was 5.15.

For `CC1(C)CC[C@]2(C(=O)N3CCNCC3)CC[C@]3(C)C(=CC[C@@H]4[C@@]5(C)CC[C@H](O)[C@@](C)(CO)[C@@H]5CC[C@]43C)[C@@H]2C1`, the pEC50 with FaDu was under 4.52; in the assay with A2780 [1] it was 4.71; in the assay with HT-29, 4.65; with SW-1736 it was under 4.52; in the assay on NIH3T3, 4.76.

Turning to `COC(=O)CNC(=O)[C@]12CCC(C)(C)C[C@H]1C1=CC[C@@H]3[C@@]4(C)CC[C@H](O)[C@@](C)(CO)[C@@H]4CC[C@@]3(C)[C@]1(C)CC2`, the pEC50 in the assay with FaDu, in the assay on A2780 [1], in the assay with HT-29, in the assay with SW-1736 and with NIH3T3 was under 4.52 each time.

For the molecule `CC(=O)OC[C@@]1(C)[C@@H]2CC[C@]3(C)[C@H](CC=C4[C@@H]5CC(C)(C)CC[C@]5(C(=O)NCc5cn(Cc6ccccc6Br)nn5)CC[C@]43C)[C@@]2(C)CC[C@@H]1OC(C)=O`, the pEC50 with FaDu was 5.60; in the assay on A2780 [1], 5.77; in the assay with HT-29 it was 5.72; in the assay with MCF7, 5.52; in the assay on SW-1736 it was 5.64; in the assay on NIH3T3, 5.47.

Turning to `CC(=O)OC[C@@]1(C)[C@@H]2CC[C@]3(C)[C@H](CC=C4[C@@H]5CC(C)(C)CC[C@]5(C(=O)N5CCCC5)CC[C@]43C)[C@@]2(C)CC[C@@H]1OC(C)=O`, the pEC50 in the assay with FaDu is 5.80; with A2780 [1], 6.40; in the assay with HT-29, 5.74; in the assay on MCF7, 5.60; in the assay with SW-1736 it was 5.77; with NIH3T3, 5.02. The results for the “Ratio EC50” value with A2780 [2], with A2780 [3] and in the assay with A2780 [4] were 70, 29 and 32, respectively.

As for `CC1(C)CC[C@]2(C(=O)N3CCCCC3)CC[C@]3(C)C(=CC[C@@H]4[C@@]5(C)CC[C@H](O)[C@@](C)(CO)[C@@H]5CC[C@]43C)[C@@H]2C1`, the pEC50 with FaDu is 4.68; with A2780 [1] it was 4.74; in the assay on HT-29, 4.74; with MCF7, 5.11; with SW-1736, 4.72; with NIH3T3, 4.73.

In the case of `CC(=O)OC[C@@]1(C)[C@@H]2CC[C@]3(C)[C@H](CC=C4[C@@H]5CC(C)(C)CC[C@]5(C(=O)N5CCNCC5)CC[C@]43C)[C@@]2(C)CC[C@@H]1OC(C)=O`, the pEC50 with FaDu is 5.28; in the assay with A2780 [1], 5.72; with HT-29, 5.17; in the assay with MCF7, 5.21; with SW-1736, 5.05; in the assay with NIH3T3, 4.97.

Consider `C=C(C)[C@@H]1CC[C@]2(C(=O)O)CC[C@]3(C)[C@H](CC[C@@H]4[C@@]5(C)CC[C@H](O)C(C)(C)[C@@H]5CC[C@]43C)[C@@H]12` [BETULINIC ACID], for which the pEC50 in the assay on MCF7 is 4.92.

For the molecule `CC(=O)OC[C@@]1(C)[C@@H]2CC[C@]3(C)[C@H](CC=C4[C@@H]5CC(C)(C)CC[C@]5(C(=O)O)CC[C@]43C)[C@@]2(C)CC[C@@H]1OC(C)=O`, the pEC50 with FaDu was 4.81; in the assay with A2780 [1], 4.92; in the assay on HT-29, 4.72; with MCF7 it was 5.01; in the assay with SW-1736, 4.75; with NIH3T3, 5.02.

For the molecule `CC(=O)OC[C@@]1(C)[C@@H]2CC[C@]3(C)[C@H](CC=C4[C@@H]5CC(C)(C)CC[C@]5(C(=O)NCCN5CCCC5)CC[C@]43C)[C@@]2(C)CC[C@@H]1OC(C)=O`, the pEC50 in the assay with FaDu was 5.40; in the assay on A2780 [1] it was 5.72; in the assay on HT-29, 5.82; with MCF7, 5.59; with SW-1736 it was 5.44; with NIH3T3, 5.66.

With `COC(=O)CNC(=O)[C@]12CCC(C)(C)C[C@H]1C1=CC[C@@H]3[C@@]4(C)CC[C@H](OC(C)=O)[C@@](C)(COC(C)=O)[C@@H]4CC[C@@]3(C)[C@]1(C)CC2`, the pEC50 is 5.51 in the assay with FaDu; 5.77 in the assay on A2780 [1]; 5.43 in the assay on HT-29; 5.35 in the assay with MCF7; 5.32 in the assay with SW-1736; 5.08 in the assay on NIH3T3.
